Test results: ChEMBL document CHEMBL1811888, “Synthesis, biological activity and HPLC validation of 1,2,3,4-tetrahydroacridine derivatives as acetylcholinesterase inhibitors” (Eur J Med Chem, 2011)

Key:
Acetylcholinesterase = Acetylcholinesterase (Homo sapiens, UniProt P22303); assay: Inhibition of AChE by Ellman's method
Cholinesterase = Cholinesterase (Homo sapiens, UniProt P06276)
Chain of Cholinesterase (P06276 whole entry): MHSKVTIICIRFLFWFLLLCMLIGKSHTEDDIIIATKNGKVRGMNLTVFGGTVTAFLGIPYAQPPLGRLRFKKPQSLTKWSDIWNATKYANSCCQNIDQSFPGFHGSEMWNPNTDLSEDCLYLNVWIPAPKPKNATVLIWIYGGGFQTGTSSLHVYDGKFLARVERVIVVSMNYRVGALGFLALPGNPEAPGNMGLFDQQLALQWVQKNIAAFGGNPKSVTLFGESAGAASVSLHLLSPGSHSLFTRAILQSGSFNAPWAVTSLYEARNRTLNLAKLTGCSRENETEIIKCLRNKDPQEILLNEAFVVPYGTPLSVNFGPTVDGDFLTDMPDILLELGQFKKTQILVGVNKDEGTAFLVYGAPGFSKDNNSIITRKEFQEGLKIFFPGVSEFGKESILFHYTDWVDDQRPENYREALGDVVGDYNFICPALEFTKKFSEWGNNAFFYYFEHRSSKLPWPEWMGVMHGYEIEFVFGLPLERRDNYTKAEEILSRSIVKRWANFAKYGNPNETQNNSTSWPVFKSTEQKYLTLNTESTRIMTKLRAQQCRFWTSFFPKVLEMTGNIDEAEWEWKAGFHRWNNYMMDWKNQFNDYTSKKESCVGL
Description: Inhibition of BChE by Ellman's method

Chain of Acetylcholinesterase (P22303 whole entry): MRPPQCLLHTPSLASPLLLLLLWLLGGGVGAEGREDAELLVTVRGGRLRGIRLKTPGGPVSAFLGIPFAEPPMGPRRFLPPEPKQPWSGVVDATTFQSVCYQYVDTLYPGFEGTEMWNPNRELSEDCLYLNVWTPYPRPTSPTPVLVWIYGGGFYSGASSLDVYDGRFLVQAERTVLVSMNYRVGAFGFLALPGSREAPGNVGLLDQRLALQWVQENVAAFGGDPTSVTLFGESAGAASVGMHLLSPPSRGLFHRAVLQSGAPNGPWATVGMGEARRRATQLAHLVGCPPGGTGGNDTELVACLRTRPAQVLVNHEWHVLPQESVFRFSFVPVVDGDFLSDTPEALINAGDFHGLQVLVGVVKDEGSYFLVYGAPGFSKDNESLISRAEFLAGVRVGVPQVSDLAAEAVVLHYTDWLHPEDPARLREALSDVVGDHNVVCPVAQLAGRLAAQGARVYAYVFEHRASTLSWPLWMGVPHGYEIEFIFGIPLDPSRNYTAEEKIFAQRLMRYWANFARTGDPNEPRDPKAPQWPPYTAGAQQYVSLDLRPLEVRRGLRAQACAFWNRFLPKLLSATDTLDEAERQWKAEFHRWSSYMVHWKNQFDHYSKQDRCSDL

Compound | IC50 (Acetylcholinesterase) [pM] | IC50 (Cholinesterase) [pM]
O=C(NCCNc1c2c(nc3ccccc13)CCCC2)c1ccc(F)cc1 | 815 | 44.9
O=C(NCCCNc1c2c(nc3ccccc13)CCCC2)c1ccc(F)cc1 | 809 | 21.2
O=C(NCCCCNc1c2c(nc3ccccc13)CCCC2)c1ccc(F)cc1 | 784 | 35.4
